The values that follow come from patent publication US20170143646A1, “EFFECT OF LIPOPHILIC NUTRIENTS ON DIABETIC EYE DISEASES” (OmniActive Health Technologies Limited, priority 2014, published 2017).

What all share (assay type): in vivo, rat
In test [1] the test system is Nerve Growth Factor (NGF). Nature of the test: NGF gene expression in retina by real-time PCR. The settings on record: diabetic retina, curcumin 0.01% diet. How it is done: (§1) Quantitative real-time PCR: Total RNA was extracted from the retina of rats using Tri reagent. Isolated RNA was further purified by RNeasy Mini Kit (Qiagen) and quantified by measuring the absorbance at 260 and 280 nm on ND1000 spectrophotometer (NanoDrop technologies, Delaware, USA). The quality of RNA preparation was assessed by electrophoresis on a denaturing agarose gel. Two μg of total RNA was reverse transcribed using High Capacity cDNA Reverse Transcription kit. Reverse transcription reaction was carried out with a thermocycler (ABI 9700). Real-time polymerase chain reaction (PCR) (ABI-7500) was performed in triplicates with 25 ng cDNA templates using SYBR green master mix with gene specific primers. Normalization and validation of data were carried using (3-actin as an internal control and data were compared between samples according to comparative threshold cycle (2^-ΔΔct) method.
On the technique in general: Real-time PCR tracks product formation cycle by cycle.

For test [2], the system named is Nerve Growth Factor (NGF). The test is described as follows: NGF protein in retina by immunofluorescence. The settings on record: diabetic retina, curcumin 0.01% diet. The procedure:
(§2) Histopathology: The eye balls from selected animals were collected in fixative 4% paraformaldehyde solution in separately labeled vials. The tissues were given some nicks so as to facilitate penetration of fixative into deep tissue. They were kept at room temperature for 24-48 hrs followed by replacing the fixative with 20 mM sodium phosphate buffer. Buffer was scheduled to be replaced with fresh buffer one each week until histopathological processing. Tissues were embedded in paraffin and sections were taken in microtome. Coated slides are used for immunohistochemistry and immunofluorescence, whereas uncoated slides for hemotoxylin and eosin (H & E) staining.

Test [3] deals with STZ-induced diabetic rats. Nature of the test: SDS-PAGE protein profiling of lens soluble fraction. As to conditions: vs group-D. The procedure: (§3) Sodium dodecyl sulfate polyacrylamide gel electrophoresis (SDS-PAGE) and size exclusion chromatography of lens proteins: Subunit profile and cross-linking of soluble proteins were analyzed on 10% polyacrylamide in the presence of sodium dodecyl sulfate (SDS) under reducing conditions. Crystalline distribution in the soluble protein fraction was performed by size exclusion chromatography on a 600×7.5 mm TSK-G4000 SW column (TOSOH Co., Japan) using a HPLC system. The column was equilibrated with 0.1 M sodium phosphate buffer pH 6.7 containing 0.1 M sodium chloride at a flow rate of 1 ml/min.
SDS-PAGE protein profiling: Differences in protein distribution pattern were observed by running the lens protein samples on 12% polyacrylamide gel. 30 μg of protein was loaded per well along with molecular weight marker for SDS-PAGE (Broad range SDS-PAGE marker, BioRad). […] FIG. 3 represents the SDS-PAGE pattern of soluble fraction of lens proteins, as shown in the drawings accompanied with the specification.

Test [4] deals with STZ-induced diabetic rats. The test is described as follows: Size exclusion HPLC of lens soluble protein. As to conditions: vs Group-D. The procedure: as §3
(In general: SEC sorts molecules by how far they enter the pores of the column.)

The subject of test [5] is STZ-induced diabetic rats. The test is described as follows: Total and soluble protein in lens homogenate (Lowry). The procedure:
Blood/Lens collection and processing: Blood was drawn once in every week from retro orbital plexus for glucose and insulin estimation. At the end of 12 weeks, animals were sacrificed by CO2 asphyxiation and lenses were dissected by posterior approach and stored at −70° C. until further analysis. A 10% homogenate was prepared from 3-5 pooled lenses in 50 mM phosphate buffer, pH 7.4. All the biochemical parameters were analyzed in the soluble fraction of the lens homogenate (15,000x g at 4° C.) except for lens malondialdehyde (MDA), which was determined in the total homogenate.
Biochemical estimations: Lens MDA, as thiobarbituric acid reacting substances (TBARS) protein carbonyl content were determined according to the methods for estimating the protein carbonyl content described by Suryanarayana P et al. in the research paper “Curcumin and turmeric delay streptozotocin-induced diabetic cataract in rats,” Invest Ophthalmol Vis Sci 2005; 46(6):2092-9. Total, soluble and insoluble protein was assayed by Lowry method using bovine serum albumin (BSA) as standard.
Individual lenses were weighed and pooled into 4 lenses for a pool, and such 4-5 pools were formed per group. A 10% homogenate was prepared in 50 mM sodium phosphate buffer pH 7.4, with tissue homogenizer at intermittent time gaps to avoid excess heat generation. Separate aliquots of total homogenate (TH) were made 250 μl for TBARS assay, 150 μl for sorbitol estimation, and 20 μl for protein estimation. Remaining homogenate was centrifuged at 10,000 RPM for 30 min at 4° C. Supernatant was separated into labelled vials, as total soluble protein (TSP).
Determining soluble percentage of protein in lens homogenate: Protein estimation was done in lens homogenate and soluble fraction by Lowry's method. Amount of protein present per gram weight of lens was calculated. Percentage of soluble protein was calculated by multiplying the fraction of soluble protein by 100.

Test [6] has as its system STZ-induced diabetic rats. Nature of the test: Retina histology (H & E), thickness of retinal layers. The settings on record: curcumin 0.01% diet, Table 6. The procedure:
as §2
A representative table of retinal layers thickness (in μm) measured by the use of Lieca application suit, Leica, Switzerland. C, Non diabetic control; D, Diabetic control; D+RL, Diabetes+Regular Lutein; D+SL, Diabetes+Soluble Lutein; GCL, ganglion cell layer; IPL, inner plexiform layer; INL, inner nuclear layer; OPL, outer plexiform layer; ONL, outer nuclear layer; PRL, photo receptor layer.

Test [7] has as its system Platelet-derived growth factor (PDGF). The test is described as follows: PDGF expression in retina by immunohistochemistry. As to conditions: diabetic retina, curcumin 0.01% diet. How it is done: as §2
Test [8] has as its system STZ-induced diabetic rats. The test is described as follows: Electroretinogram, oscillatory potentials (OPs). The settings on record: curcumin 0.01% diet; D 334.2. The procedure: Experimental design: Male Wistar-NIN rats with an average body weight of 120 gms are obtained from the National center for laboratory animal sciences, National institute of Nutrition, Hyderabad (NCLAS, NIN). Animals were maintained at NCLAS, MN and kept for acclimatization in an experimental room for two weeks. Diabetes was induced in overnight fasted animals by a single intraperitoneal injection of STZ (30 mg/kg) in 0.1 M citrate buffer, pH 4.5. Another set of rats, which received only a vehicle, served as the control (Group-C; n=6). Fasting blood glucose levels were measured 72 h after STZ injection. Animals having blood glucose levels >150 mg/dL were considered diabetic and all the animals are divided into four groups as shown in the Table 3 below.
All the animals were housed in individual cages maintained on their respective diets for 12. weeks and drinking water was provided ad libitum throughout the study period. Daily food intake and weekly body weights, fasting glucose levels were noted. […]
Electroretinogram (ERG) Analysis: Diabetic retinoapthy is characterized by disturbances in retinal function. The retinal function can be assessed by electroretinogram. […]
Animals were dark-adapted for overnight and prepared for the ERG procedure under dim red illumination. […] The oscillatory potentials were extracted from the wave form and the sum of all OPs was calculated.

Test [9] concerns Rhodopsin (Rho). Nature of the test: Rhodopsin mRNA in retina by real-time PCR. As to conditions: diabetic retina, curcumin 0.01% diet. How it is done: as §1
Test [10] has as its system STZ-induced diabetic rats. The test is described as follows: Slit lamp examination and cataract grading (diabetic cataract). As to conditions: end of ten weeks; lutein 0.5% or curcumin 0.01% in diet; Group-D stage 4. How it is done: Male Wistar strain (WNIN) rats (2 months old; Average BW of 213±14 g) obtained from the National Center for Laboratory Animal Sciences, National Institute of Nutrition, Hyderabad, India (NCLAS, NIN). Animals were maintained at NCLAS, NIN and kept for acclimatization in an experimental room for two weeks. Diabetes was induced in overnight fasted animals by a single intraperitoneal injection of STZ (30 mg/kg) in 0.1 M citrate buffer, pH 4.5. Another set of rats, which received only a vehicle, served as the control (Group I; n=12). Fasting blood glucose levels were measured 72 h after STZ injection. Animals having blood glucose levels >150 mg/dL were considered diabetic and those were only divided into five groups (Group II-VI). A group of control rats (n=6) were fed with 0.01% soluble curcumin (Group VII) and soluble 0.5% lutein alone (Group VIII).
Slit lamp examination and Cataract grading: Eyes were examined every week using a slit lamp bio microscope on dilated pupils. Initiation and progression of lens opacity was graded into five categories (0-4).
Cataract development and progression: Onset and progression of cataract is monitored by slit lamp biomicroscope examination as described below: Eyes were examined every week using a slit lamp biomicroscope (Kowa SL15, Portable, Japan) on dilated pupils.

Test [11] has as its system Rhodopsin (Rho). The test is described as follows: Rhodopsin protein in retina by immunofluorescence. As to conditions: diabetic retina, curcumin 0.01% diet. The procedure:
as §2

Consider `COc1cc(/C=C/C(=O)CC(=O)/C=C/c2ccc(O)c(OC)c2)ccc1O` [RC, curcumin], for which the NGF gene expression result in test [1] is “equal beneficiary effect in preventing down regulation of NGF gene”. The NGF protein entry in [2] is “prevented loss of NGF protein”. The “band of aggregated proteins at ~50 kDa” value in test [3] is “reduced band intensity”. Also, the “size exclusion profile of total soluble protein (TSP)” value in test [4] is given as “normalized the profile of TSP”. Further, in test [5] (lens), the “loss of soluble protein compared to group-D” value was “significantly prevented loss of soluble protein”. The Total protein in test [5] (lens homogenate, mean ± SEM, n = 6, lutein 0.5% or curcumin 0.01% diet, 12 weeks) is 368.50 ± 19.2 mg/gm lens. The Soluble protein in test [5] (lens soluble fraction, mean ± SEM, n = 6) came to 202.63 ± 21.6 mg/gm lens. Besides, in [6], the “GCL + IPL thickness” value amounted to 35.692 μ, the INL thickness is 13.648 μ, the ONL thickness was determined as 30.108 μ and the OPL thickness turned out to be 5.685 μ. In addition, in test [6], the PRL thickness is recorded as 19.520 μ and the Total retinal thickness turned out to be 106.014 μ. Moreover, the PDGF expression entry in test [7] is recorded as “inhibited diabetes induced PDGF over expression”. Moreover, the “sum of OPs (amplitude)” value in [8] was 445.7 μV. In the test with Rhodopsin (Rho) [9], the “mRNA levels of Rho gene” value was “prevented its decline”. In addition, in [10], the “severity of cataracts (stage 0-4)” value is reported as 3.0 stage. For the same molecule, the Rho protein expression entry with Rhodopsin (Rho) [11] is on record as “prevented loss of Rho protein expression”.
